Source: patent US12611423B2, “Medical use of tafoxiparin” (DILAFOR AB, priority 2022, dated 2026)

System: term pregnant, nulliparous women with an unripe cervix
Assay: Clinical phase II trial PPL17 (Parts A and B), subcutaneous tafoxiparin vs placebo
Assay type: in vivo, human
Settings: for Labor induced with PGE-1, % of women: placebo 10.2%; for Fetal distress as indication for operative delivery (ODFD), % of women: placebo 22.7%; for patients with operative delivery, % / women needing instrumental delivery (FIG. 4, vaginal mode of partus): placebo 45.5%; for Labor induced with amniotomy, % of women: placebo 56.8%; for Labor induction with Balloon catheter, % of women: placebo 58.0%; for Labor induced, % of women: placebo 70.5%; for women needing instrumental delivery or caesarian section to reach partus (FIG. 5): placebo 52%; for women reaching partus by vaginal delivery with no need for instrumental delivery nor caesarian section (FIG. 5): placebo 48%; for number of subjects (women) that reach spontaneous onset of labor / subjects (women) that reach spontaneous onset of labor, % of n: cumulative, n = 37
Procedure: A clinical phase II trial is performed as a randomized, double-blind, placebo-controlled, parallel-group proof of concept study (Part A) with a conditional dose finding follow up study (Part B) to evaluate the efficacy, safety, tolerability and dose response of subcutaneously administered tafoxiparin as a supplement to induction therapy in term pregnant, nulliparous women with an unripe cervix. The study is performed in Sweden and Finland (PPL17), and an EMA (European Medicines Agency) description of the study can be found on the EU Clinical Trials Register web (www.clinicaltrialsregister.eu/ctr-search/search?query=PPL17).
A total of 170 term pregnant women are randomized to receive either 300 mg of tafoxiparin, or corresponding placebo (vehicle), administered subcutaneously every 24±3 hours and up to a total of 7 doses, or until partus (Part A).
In the dose finding follow up study (Part B), a total of 164 term pregnant women are randomized to receive either 75 or 150 mg of tafoxiparin administered subcutaneously every 24±3 hours […] and up to a total of 7 doses, or until partus.
To assess the efficacy of tafoxiparin on cervical ripening/cervical ripening rate, during and up to the first seven days of treatment, measured by Bishop score. All women must be examined to check the cervical state before enrollment.
Tafoxiparin/Placebo is supplied by Dilafor AB to the site as kits designed to constitute 300 mg of tafoxiparin or placebo for daily administration. Apart from the active substance, each ml of study drug will constitute 0.015 M phosphate buffer. The study medication kit for each patient will contain 8 doses consisting of 2 vials containing a minimum extractable volume of 1.6 ml of 150 mg/ml of tafoxiparin or placebo. One dose is a reserve dose in case a dose is rendered unusable. The investigational product should be administered subcutaneously every 24±3 hours by the site staff for up to 7 doses, or until partus. At each dosing time 1.0 ml of the drug will be extracted from each of the 2 vials and injected as separate s.c. injections in the abdominal or hip region.
Tafoxiparin/Placebo is supplied by Dilafor AB to the site as kits designed to constitute 75 or 150 mg of tafoxiparin for daily administration. Apart from the active substance, each ml of study drug will constitute 0.015 M phosphate buffer. The study medication kit for each patient will contain 8 doses consisting of 2 vials for each injection occasion containing a minimum extractable volume of 1.6 ml of 150 mg/ml of tafoxiparin or placebo. For subjects receiving 75 mg of tafoxiparin, one vial will contain active substance and one containing placebo. For subjects receiving 150 mg of tafoxiparin, both vials will contain active substance. One dose is a reserve dose in case a dose is rendered unusable. The investigational product should be administered subcutaneously every 24±3 hours by the site staff for up to 7 doses, or until partus. At each dosing time, 0.5 ml of the drug will be extracted from each of the 2 vials and injected as separate s.c. injections in the abdominal or hip region.
If the subject is found to be eligible for the study, they will be randomized to study treatment, i.e. 300 mg of tafoxiparin or corresponding placebo daily (Part A), or 75 or 150 mg daily (Part B).
The study medication will be administered subcutaneously in the abdominal or hip region for up to a total of 7 doses or until labor induction or spontaneous onset of labor. If the cervix is still unripe after 7 doses of IMP, the patient is given cervical balloon catheter as a mean of labor induction.
Subjects who enter into spontaneous onset of labor after 1-7 doses of IMP should be managed according to clinical routines.
Subjects who are given 4-7 doses without entering into spontaneous onset of labor, but with a ripe cervix (Bishop Score ≥6), should be induced into labor by amniotomy and oxytocin treatment, but not before 4 treatment doses have been given. […]

## tafoxiparin
150 mg, n = 85
  Labor induced with oxytocin, number of women: 38
  Labor induced, number of women: 48
  Labor induction with Balloon catheter, number of women: 37
  Number of patients with operative delivery: 41
  Labor induced with PGE-1, % of women: 8.2%
  Fetal distress as indication for operative delivery (ODFD), % of women: 23.5%
  patients with operative delivery, %: 48.2%
  Labor induced with amniotomy, % of women: 45.9%
  Labor induction with Balloon catheter, % of women: 43.5%
  Labor induced, % of women: 56.5%
150 mg, n = 85, placebo 54.5%
  Labor induced with oxytocin, % of women: 44.7%
150 mg, women with spontaneous onset of labor, 9 of the 32 women, p-value 0.422
  women needing instrumental delivery (FIG. 4, vaginal mode of partus): 28.1%
150 mg, women with spontaneous onset of labor, 13 of 36 women
  women needing instrumental delivery or caesarian section to reach partus (FIG. 5): 36.1%
150 mg, women with spontaneous onset of labor, 23 of 36 women
  women reaching partus by vaginal delivery with no need for instrumental delivery nor caesarian section (FIG. 5): 63.9%
300 mg and 150 mg, women with spontaneous onset of labor
  time point of spontaneous onset of labor (FIG. 3, change of Bishop score): achieved spontaneous onset of labor at an earlier time point than women treated with 75 mg tafoxiparin and placebo
300 mg s.c. once daily up to 7 doses, 37 women of 90, p-value=0.089 (part A 0.080), placebo 28.7%
  women achieving spontaneous onset of labor (FIG. 1): 41.1%
300 mg, 150 mg, 75 mg, Table 3
  development day-by-day towards a spontaneous onset of labor: shows a dose-response relationship
300 mg, 27 of the 33 women, placebo 54.5%
  women reaching spontaneous onset of labor with uncomplicated delivery: 81.8%
300 mg, Study day 1
  number of subjects (women) that reach spontaneous onset of labor: 2
  subjects (women) that reach spontaneous onset of labor, % of n: (5%)
300 mg, Study day 2
  number of subjects (women) that reach spontaneous onset of labor: 11
  subjects (women) that reach spontaneous onset of labor, % of n: (30%)
300 mg, Study day 3
  number of subjects (women) that reach spontaneous onset of labor: 18
  subjects (women) that reach spontaneous onset of labor, % of n: (49%)
300 mg, Study day 4
  number of subjects (women) that reach spontaneous onset of labor: 23
  subjects (women) that reach spontaneous onset of labor, % of n: (62%)
300 mg, Study day 5
  number of subjects (women) that reach spontaneous onset of labor: 30
  subjects (women) that reach spontaneous onset of labor, % of n: (81%)
300 mg, Study day 6
  number of subjects (women) that reach spontaneous onset of labor: 34
  subjects (women) that reach spontaneous onset of labor, % of n: (92%)
300 mg, Study day 7
  number of subjects (women) that reach spontaneous onset of labor: 37
  subjects (women) that reach spontaneous onset of labor, % of n: (100%)
300 mg, n = 91
  Fetal distress as indication for operative delivery (ODFD), number of women: 11
  Labor induced with PGE-1, number of women: 5
  Labor induced with amniotomy, number of women: 50
  Labor induced with oxytocin, number of women: 45
  Labor induced, number of women: 53
  Labor induction with Balloon catheter, number of women: 42
  Number of patients with operative delivery: 32
  Labor induced with PGE-1, % of women: 5.5%
  Fetal distress as indication for operative delivery (ODFD), % of women: 12.1%
  patients with operative delivery, %: 35.2%
  Labor induced with amniotomy, % of women: 54.9%
  Labor induction with Balloon catheter, % of women: 46.2%
  Labor induced, % of women: 58.2%
300 mg, n = 91, placebo 54.5%
  Labor induced with oxytocin, % of women: 49.5%
300 mg, women with spontaneous onset of labor, 6 of the 33 women, p-value=0.048 (part A 0.053)
  women needing instrumental delivery (FIG. 4, vaginal mode of partus): 18.2%
300 mg, women with spontaneous onset of labor, 10 of the 37 women
  women needing instrumental delivery or caesarian section to reach partus (FIG. 5): 27%
300 mg, women with spontaneous onset of labor, 27 of the 37 women
  women reaching partus by vaginal delivery with no need for instrumental delivery nor caesarian section (FIG. 5): 73%
All three doses 300 mg, 150 mg and 75 mg
  effect on achieving spontaneous onset of labor: effective for achieving spontaneous onset of labor
All three doses 300 mg, 150 mg and 75 mg, compared to placebo
  effect on mode of partus: effective for a person to reach partus by vaginal delivery and with less need for instrumental delivery or caesarian section
All three doses (300 mg, 150 mg and 75 mg), women with spontaneous onset of labor, compared to placebo
  effect on need for instrumental delivery: effective in reducing the need for instrumental delivery
All three doses, compared to placebo
  effect on need for intervention to achieve onset of labor: reduced the need for intervention in order to achieve onset of labor
Any one of the three doses 75 mg, 150 mg and 300 mg, vs placebo
  time point of achieving a ripe cervix: achieve a ripe cervix at an earlier time point than women that have been treated with placebo
Conclusion of the clinical study
  need for operative delivery (caesarean section and instrumental delivery) due to fetal distress: reduction of the need for operative delivery
Doses 300 mg and 150 mg
  effect on cervical ripening (FIG. 3): beneficial effect on cervical ripening
First 7 days of treatment, all three doses (300 mg, 150 mg and 75 mg) compared to placebo
  estimated cervical ripening rate measured by Bishop score (FIG. 6): higher
Women with spontaneous onset of labor, 300 mg (p=0.070), 150 mg (p 0.654), 75 mg (p 0.114) vs placebo
  labor time up to vaginal delivery (partus) (FIG. 2, Kaplan-Meier): shorter labor time up to vaginal delivery (partus) compared to placebo
